Reference: patent US11987583B2, “Fused triazolo-pyrimidine compounds having useful pharmaceutical application” (PIKSci Inc., priority 2017, dated 2024)
Where two headings read alike, the source gives them in different places.

How the values were obtained:
[1] = tested on: Acute myelomonocytic leukemia cells ML-2; assay: Caspase3/7 activity (Caspase-Glo 3/7) in ML-2 cells; assay type: cell-based; details: 15 h, 24 h and 41 h after exposure
Description: Acute myelomonocytic leukemia cells ML-2 were plated in 96 well plate at a density of 50,000 cells per a well in RPMI medium supplemented with 10% FBS. The cells were exposed to compounds and the early apoptosis marker, Caspase3/7 activity, was measured in the cells at 15 h, 24 h and 41 h after exposure to compounds. The caspase activity was determined using Caspase-Glo® 3/7 Assay (Promega) and according to the protocol provided by the manufacturer.

T-cell lymphoma Hut-78 = assay: Cell viability (Presto Blue), T-cell lymphoma Hut-78; assay type: cell-based; details: Homo sapiens, HuT78, Hut-78 cells, 70 hours exposure
Description: (§1) Three cancer cell lines, multiple myeloma KMS12E, Non-hodgkin's lymphoma SU-DHL4, T-cell lymphoma Hut-78, and normal human peripheral blood mononuclear cells derived from healthy individual were tested. The cells were plated in 384 well plates in RPMI medium supplemented with 10% fetal bovine serum. Cancer cells were plated at 1000 cells/well and normal cells at 10,000 cells per well in a total volume of 30 uL/well. Immediately after plating, the test compounds were added at […] concentrations: 10 uM-1 uM-0.01 uM-0.001 uM, in duplicate wells for each concentration. The cells were exposed to compounds for 70 hours at 37° C. in humidified incubator with 5% CO2. Cell viability was determined by Presto Blue reagent (Thermo Scientific/Invitrogen).

[2] = molecular target: T1, Full length human recombinant PIKFYVE (Homo sapiens, UniProt Q9Y2I7); assay: Biochemical PIKfyve assay; details: 2 nM enzyme, 10 μM ATP, 3 h room temperature
T1 construct: Full length human recombinant PIKFYVE expressed in baculovirus expression system as N-terminal GST-fusion protein; GST (N); purchased Carna Biosciences (Kobe, Japan); host or cells: baculovirus expression system
Description: Full length human recombinant PIKFYVE expressed in baculovirus expression system as N-terminal GST-fusion protein (265 kDa) was obtained from Carna Biosciences (Kobe, Japan). […] The kinase reactions were allowed to proceed for 3 h at room temperature. […] Terminated plates were analyzed on a microfluidic electrophoresis instrument (Caliper LabChip® 3000, Caliper Life Sciences/Perkin Elmer).

[3] = tested on: IL-23 secretion by LPS-induced PBMCs; assay: IL-23 secretion by LPS-stimulated human PBMCs (ELISA); assay type: cell-based; details: 2 h pre-incubation, 100 ng/mL LPS 18 hours
Description: Human PBMCs were plated in 96 well plate at a density of 150,000 cells per a well in RPMI medium supplemented with 10% FBS. The cells were pre-incubated with compounds for 2 h. Following pre-incubation, the cells were stimulated with 100 ng/mL LPS for 18 hours. The secreted IL-23 was determined by ELISA (Human IL-23 Quantikine ELISA Kit, R&D cat #D2300B).

[4] = tested on: normal human peripheral blood mononuclear cells; assay: Cell viability (Presto Blue), normal human PBMCs; assay type: cell-based; details: for IC50: Homo sapiens, PBMC
Description: as §1

multiple myeloma KMS12E = assay: Cell viability (Presto Blue), multiple myeloma KMS12E; assay type: cell-based; details: Homo sapiens, KMS12E cells, 70 hours exposure, read-out: Plasma cell myeloma, IC50
Description: as §1

[5] = tested on: multiple myeloma KMS12E, Non-hodgkin's lymphoma SU-DHL4, T-cell lymphoma Hut-78; assay: Cell viability (Presto Blue), panel of cancer cell lines; assay type: cell-based; details: Homo sapiens; range over KMS12E, SU-DHL4, Hut-78; 70 hours; read-out: IC50, viability of the three cancer cell lines
Description: Three cancer cell lines, multiple myeloma KMS12E, Non-hodgkin's lymphoma SU-DHL4, T-cell lymphoma Hut-78, and normal human peripheral blood mononuclear cells derived from healthy individual were tested. The cells were plated in 384 well plates in RPMI medium supplemented with 10% fetal bovine serum. Cancer cells were plated at 1000 cells/well and normal cells at 10,000 cells per well in a total volume of 30 uL/well. Immediately after plating, the test compounds were added at five concentrations: 10 uM-1 uM-0.01 uM-0.001 uM, in duplicate wells for each concentration. The cells were exposed to compounds for 70 hours at 37° C. in humidified incubator with 5% CO2. Cell viability was determined by Presto Blue reagent (Thermo Scientific/Invitrogen).

[6] = viability, Presto Blue, 70 hours exposure, read-out: Normal human PBMCs, IC50

T1 sequence (Q9Y2I7 whole entry, the tested form may be a part): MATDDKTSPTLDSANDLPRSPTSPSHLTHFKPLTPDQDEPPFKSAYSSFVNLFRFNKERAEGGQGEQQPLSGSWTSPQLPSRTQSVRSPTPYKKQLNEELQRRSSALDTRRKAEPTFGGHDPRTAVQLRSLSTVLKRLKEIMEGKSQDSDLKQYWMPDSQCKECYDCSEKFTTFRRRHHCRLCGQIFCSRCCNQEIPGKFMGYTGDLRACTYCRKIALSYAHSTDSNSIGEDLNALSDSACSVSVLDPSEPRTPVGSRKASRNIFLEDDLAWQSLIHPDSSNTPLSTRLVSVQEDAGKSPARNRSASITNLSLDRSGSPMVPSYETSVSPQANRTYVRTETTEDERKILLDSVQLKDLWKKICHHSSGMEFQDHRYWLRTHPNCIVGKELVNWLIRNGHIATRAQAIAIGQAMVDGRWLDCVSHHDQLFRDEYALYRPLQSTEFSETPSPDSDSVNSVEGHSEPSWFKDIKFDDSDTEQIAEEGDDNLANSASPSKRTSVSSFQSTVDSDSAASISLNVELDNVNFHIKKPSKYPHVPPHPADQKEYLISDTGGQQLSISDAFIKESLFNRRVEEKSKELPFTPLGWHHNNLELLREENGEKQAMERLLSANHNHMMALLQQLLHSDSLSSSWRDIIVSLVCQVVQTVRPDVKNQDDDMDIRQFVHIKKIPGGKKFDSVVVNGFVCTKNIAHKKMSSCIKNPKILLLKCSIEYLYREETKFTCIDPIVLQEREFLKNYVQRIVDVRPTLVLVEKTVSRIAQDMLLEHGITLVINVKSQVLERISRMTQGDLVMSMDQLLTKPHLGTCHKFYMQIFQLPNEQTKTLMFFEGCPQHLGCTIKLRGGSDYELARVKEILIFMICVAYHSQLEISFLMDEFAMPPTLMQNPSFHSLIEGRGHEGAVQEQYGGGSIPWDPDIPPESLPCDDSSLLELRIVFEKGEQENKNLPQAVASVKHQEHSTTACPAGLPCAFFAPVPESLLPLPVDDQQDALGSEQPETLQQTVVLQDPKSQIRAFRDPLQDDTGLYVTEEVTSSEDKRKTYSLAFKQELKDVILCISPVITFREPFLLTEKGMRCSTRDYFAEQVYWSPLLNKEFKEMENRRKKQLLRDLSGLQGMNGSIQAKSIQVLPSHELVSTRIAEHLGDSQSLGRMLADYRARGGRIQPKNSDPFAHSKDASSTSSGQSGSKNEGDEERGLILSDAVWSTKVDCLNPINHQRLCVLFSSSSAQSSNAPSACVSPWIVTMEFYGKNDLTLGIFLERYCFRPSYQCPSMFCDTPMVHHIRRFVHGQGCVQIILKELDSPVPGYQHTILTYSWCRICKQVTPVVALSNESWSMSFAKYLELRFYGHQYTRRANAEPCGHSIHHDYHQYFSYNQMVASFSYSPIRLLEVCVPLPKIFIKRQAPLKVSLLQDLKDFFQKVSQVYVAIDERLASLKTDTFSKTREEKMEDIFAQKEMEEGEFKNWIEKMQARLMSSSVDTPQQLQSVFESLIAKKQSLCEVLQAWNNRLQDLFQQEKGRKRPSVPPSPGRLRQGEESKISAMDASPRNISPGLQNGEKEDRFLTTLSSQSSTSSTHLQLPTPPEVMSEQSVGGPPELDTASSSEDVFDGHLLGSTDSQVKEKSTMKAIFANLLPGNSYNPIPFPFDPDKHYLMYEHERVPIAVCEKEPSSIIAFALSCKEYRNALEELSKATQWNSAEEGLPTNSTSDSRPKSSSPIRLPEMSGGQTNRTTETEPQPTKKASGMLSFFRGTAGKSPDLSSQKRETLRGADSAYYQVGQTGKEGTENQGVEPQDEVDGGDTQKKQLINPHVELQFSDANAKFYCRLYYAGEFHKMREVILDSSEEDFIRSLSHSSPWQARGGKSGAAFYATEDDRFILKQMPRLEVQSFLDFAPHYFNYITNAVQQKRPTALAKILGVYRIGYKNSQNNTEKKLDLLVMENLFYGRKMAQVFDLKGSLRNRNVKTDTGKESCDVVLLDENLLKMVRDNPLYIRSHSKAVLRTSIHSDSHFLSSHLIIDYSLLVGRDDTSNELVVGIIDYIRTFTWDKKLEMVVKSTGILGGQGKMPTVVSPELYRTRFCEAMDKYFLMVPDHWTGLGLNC

IC50 (T-cell lymphoma Hut-78) [µM]	IC50 (multiple myeloma KMS12E) [µM]	IC50 [5] [µM]	SMILES	Caspase3/7 activation (early apoptosis marker) [1]	IC50 [2] [µM]	secretion of IL-23 [3]	IC50 [4, 6] [µM]	selectivity towards cancer cells over normal cells ([4]; Hut-78 and KMS12E vs normal human PBMCs)	IC50 ([4]; 70 hours, Example 14 text, read-out: IC50, viability of normal PBMCs) [µM]
0.028	0.074	0.033 to 0.046	Cc1cccc(/C=N/Nc2cc(N3CCOCC3)n3nc(-c4ccncc4)cc3n2)c1 [APY0201]	induce apoptosis		completely blocked secretion of IL-23	> 10		> 10
0.027	0.073		Cc1cccc(/C=N/Nc2cc(N3CCOCC3)nc(OCCc3ccccn3)n2)c1 [Apilimod, apilimod]	induce apoptosis			> 10		

SMILES	IC50 (T-cell lymphoma Hut-78) [µM]	IC50 (multiple myeloma KMS12E) [µM]	IC50 [5] [µM]	Caspase3/7 activation (early apoptosis marker) [1]	IC50 [2] [µM]	secretion of IL-23 [3]	IC50 [4, 6] [µM]	selectivity towards cancer cells over normal cells ([4]; Hut-78 and KMS12E vs normal human PBMCs)	IC50 ([4]; 70 hours, Example 14 text, read-out: IC50, viability of normal PBMCs) [µM]
Cc1cccc(/C=N/Nc2cc(N3CCOCC3)n3nc(-c4ccncc4)nc3n2)c1 [Compound 1, (E)-4-(5-(2-(3-methylbenzylidene)hydrazinyl)-2-(pyridin-4-yl)-[1,2,4]-triazolo[1,5-a]pyrimidin-7-yl)morpholine]	0.047	0.115		triggered Caspase3/7 activation	0.01	completely blocked secretion of IL-23	> 10	showed selectivity towards cancer cells over normal cells	
